From ChEMBL document CHEMBL1146106, “1-Phenyl-8-azabicyclo[3.2.1]octane ethers: a novel series of neurokinin (NK1) antagonists” (Bioorg Med Chem Lett, 2006)

What was measured:
Substance-P receptor = Substance-P receptor (Homo sapiens, UniProt P25103); assay: Displacement of [125I]-labeled substance P from human cloned NK1 receptor expressed in CHO cells; format: cell-based
Gerbil, jird [1] = assay: Inhibition of GR-73632-induced foot tapping in iv dosed gerbil; format: functional; conditions: Meriones, read-out: ID50 (the source's name)
[2] = molecular target: Voltage-gated inwardly rectifying potassium channel KCNH2 (Homo sapiens, UniProt Q12809); assay: Displacement of [35S]-labeled MK499 from cloned hERG expressed in HEK cells; format: cell-based, HEK293
Gerbil, jird [3] = assay: Inhibition of GR-73632-induced foot tapping in iv dosed gerbils after 24 hrs; format: functional; conditions: Meriones, read-out: ID50 (the source's name)
Gerbil, jird [4] = assay: Inhibition of GR-73632-induced foot tapping in gerbils at 3 mg/kg, iv; format: functional; conditions: Meriones
Gerbil, jird [5] = assay: Inhibition of GR-73632 induced foot tapping in gerbils at 3 mg/kg, iv after 24 hrs; format: functional; conditions: Meriones

Chain of Voltage-gated inwardly rectifying potassium channel KCNH2 (Q12809 whole entry): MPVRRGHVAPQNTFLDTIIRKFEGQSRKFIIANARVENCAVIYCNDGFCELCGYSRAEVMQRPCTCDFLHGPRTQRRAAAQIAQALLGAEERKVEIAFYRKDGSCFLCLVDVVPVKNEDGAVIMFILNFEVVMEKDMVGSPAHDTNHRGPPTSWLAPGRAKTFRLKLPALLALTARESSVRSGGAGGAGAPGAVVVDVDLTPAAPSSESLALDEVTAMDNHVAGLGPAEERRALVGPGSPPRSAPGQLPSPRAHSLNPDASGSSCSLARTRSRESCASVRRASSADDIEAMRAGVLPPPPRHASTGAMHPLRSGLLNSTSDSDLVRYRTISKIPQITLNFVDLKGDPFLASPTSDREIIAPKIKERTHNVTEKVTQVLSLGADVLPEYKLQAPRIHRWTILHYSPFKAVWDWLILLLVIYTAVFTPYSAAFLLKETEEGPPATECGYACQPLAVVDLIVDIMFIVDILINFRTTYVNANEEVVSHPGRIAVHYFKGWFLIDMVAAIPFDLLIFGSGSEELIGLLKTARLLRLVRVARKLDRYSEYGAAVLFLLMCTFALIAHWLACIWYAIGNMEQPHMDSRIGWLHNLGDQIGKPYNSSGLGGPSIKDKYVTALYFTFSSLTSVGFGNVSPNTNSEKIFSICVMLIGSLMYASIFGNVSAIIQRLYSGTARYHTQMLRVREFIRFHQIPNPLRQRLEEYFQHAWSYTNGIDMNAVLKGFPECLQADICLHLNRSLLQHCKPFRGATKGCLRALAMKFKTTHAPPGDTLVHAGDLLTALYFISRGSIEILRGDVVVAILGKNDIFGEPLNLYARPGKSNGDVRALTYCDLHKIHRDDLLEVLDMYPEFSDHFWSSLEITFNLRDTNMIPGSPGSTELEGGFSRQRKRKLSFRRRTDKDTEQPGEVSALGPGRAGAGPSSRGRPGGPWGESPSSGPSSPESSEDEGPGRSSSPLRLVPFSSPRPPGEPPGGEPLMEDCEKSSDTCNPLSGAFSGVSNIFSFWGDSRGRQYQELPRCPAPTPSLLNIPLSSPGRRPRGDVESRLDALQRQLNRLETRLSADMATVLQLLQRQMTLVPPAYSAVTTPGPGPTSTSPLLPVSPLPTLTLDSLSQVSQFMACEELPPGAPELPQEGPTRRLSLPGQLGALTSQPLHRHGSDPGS
Chain of Substance-P receptor (P25103 whole entry): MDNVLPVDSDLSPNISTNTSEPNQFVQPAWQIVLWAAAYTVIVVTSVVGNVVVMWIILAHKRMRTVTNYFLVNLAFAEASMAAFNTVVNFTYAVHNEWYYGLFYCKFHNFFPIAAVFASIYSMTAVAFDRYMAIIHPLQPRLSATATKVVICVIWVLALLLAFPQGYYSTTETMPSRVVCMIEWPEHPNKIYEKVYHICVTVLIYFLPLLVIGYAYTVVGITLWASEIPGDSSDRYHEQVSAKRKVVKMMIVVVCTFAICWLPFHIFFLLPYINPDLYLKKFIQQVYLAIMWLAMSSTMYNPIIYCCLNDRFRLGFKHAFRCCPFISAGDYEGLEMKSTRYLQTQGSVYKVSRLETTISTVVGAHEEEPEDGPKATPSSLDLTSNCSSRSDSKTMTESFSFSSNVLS

| SMILES | IC50 (Substance-P receptor) | ED50 (Gerbil, jird [1]) | Ki [2] | ED50 (Gerbil, jird [3]) | inhibition in vivo at 3 mg/kg (Gerbil, jird [4]) | inhibition in vivo at 3 mg/kg (Gerbil, jird [5]) |
| --- | --- | --- | --- | --- | --- | --- |
| C[C@H](OC1CCC2CCC1(c1ccccc1)N2)c1cc(C(F)(F)F)cc(C(F)(F)F)c1 (stereo partly specified) | 200 nM |  |  |  |  |  |
| C[C@@H](OC1CCC2NC1(c1ccccc1)CC2c1nnnn1C)c1cc(C(F)(F)F)cc(C(F)(F)F)c1 (stereo partly specified) | 1.2 nM | 0.2 mg/kg | 2800 nM | 0.8 mg/kg |  |  |
| C[C@@H](OC1CCC2NC1(c1ccccc1)CC2c1nnn(C)n1)c1cc(C(F)(F)F)cc(C(F)(F)F)c1 (stereo partly specified) | 0.5 nM | 0.4 mg/kg | 1800 nM | 1.1 mg/kg |  |  |
| C[C@@H](OC1CCC2NC1(c1ccccc1)CC2S(=O)(=O)c1ccccc1)c1cc(C(F)(F)F)cc(C(F)(F)F)c1 (stereo partly specified) | 0.6 nM |  |  |  | 39% |  |
| C[C@@H](OC1CCC2NC1(c1ccccc1)CC2(F)c1nnn(C)n1)c1cc(C(F)(F)F)cc(C(F)(F)F)c1 (stereo partly specified) | 0.4 nM |  | > 5000 nM |  |  | 23% |
| FC(F)(F)c1cc(COC2CCC3CCC2(c2ccccc2)N3)cc(C(F)(F)F)c1 (stereo unspecified) | 3 nM |  | 300 nM |  |  |  |
| O=S(=O)(c1ccccc1)C1CC2(c3ccccc3)NC1CCC2OCc1cc(C(F)(F)F)cc(C(F)(F)F)c1 (stereo unspecified) | 2.8 nM |  | 1300 nM |  |  |  |
| Cn1nnc(C2(F)CC3(c4ccccc4)NC2CCC3OCc2cc(C(F)(F)F)cc(C(F)(F)F)c2)n1 (stereo unspecified) | 1.5 nM |  | > 10000 nM |  |  | 11% |
| Cn1nnc(C2CC3(c4ccccc4)NC2CCC3OCc2cc(C(F)(F)F)cc(C(F)(F)F)c2)n1 (stereo unspecified) | 1 nM | 0.3 mg/kg | 100 nM | 0.6 mg/kg |  |  |
| C[C@@H](OC1CCC2CCC1(c1ccccc1)N2)c1cc(C(F)(F)F)cc(C(F)(F)F)c1 (stereo partly specified) | 4.2 nM |  |  |  |  |  |
